# Data from article PMC6934184, “Selective DNA-PKcs inhibition extends the therapeutic index of localized radiotherapy and chemotherapy” (The Journal of Clinical Investigation, 2019).
# Molecular target: T1, PRKCN (PKD3) (Homo sapiens, UniProt O94806)
# T1 construct: purchased Thermo Fisher Scientific (Life Technologies) SelectScreen
# Test: SelectScreen Z'LYTE
# Assay type: biochemical
# In short: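 SelectScreen broad panel; activity (Z'LYTE, Adapta) plus binding formats. ATP: Km app for CSF1R Z'LYTE; 10 for CAMK1 Adapta. Readout = % per kinase.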
# T1 sequence (O94806 whole entry): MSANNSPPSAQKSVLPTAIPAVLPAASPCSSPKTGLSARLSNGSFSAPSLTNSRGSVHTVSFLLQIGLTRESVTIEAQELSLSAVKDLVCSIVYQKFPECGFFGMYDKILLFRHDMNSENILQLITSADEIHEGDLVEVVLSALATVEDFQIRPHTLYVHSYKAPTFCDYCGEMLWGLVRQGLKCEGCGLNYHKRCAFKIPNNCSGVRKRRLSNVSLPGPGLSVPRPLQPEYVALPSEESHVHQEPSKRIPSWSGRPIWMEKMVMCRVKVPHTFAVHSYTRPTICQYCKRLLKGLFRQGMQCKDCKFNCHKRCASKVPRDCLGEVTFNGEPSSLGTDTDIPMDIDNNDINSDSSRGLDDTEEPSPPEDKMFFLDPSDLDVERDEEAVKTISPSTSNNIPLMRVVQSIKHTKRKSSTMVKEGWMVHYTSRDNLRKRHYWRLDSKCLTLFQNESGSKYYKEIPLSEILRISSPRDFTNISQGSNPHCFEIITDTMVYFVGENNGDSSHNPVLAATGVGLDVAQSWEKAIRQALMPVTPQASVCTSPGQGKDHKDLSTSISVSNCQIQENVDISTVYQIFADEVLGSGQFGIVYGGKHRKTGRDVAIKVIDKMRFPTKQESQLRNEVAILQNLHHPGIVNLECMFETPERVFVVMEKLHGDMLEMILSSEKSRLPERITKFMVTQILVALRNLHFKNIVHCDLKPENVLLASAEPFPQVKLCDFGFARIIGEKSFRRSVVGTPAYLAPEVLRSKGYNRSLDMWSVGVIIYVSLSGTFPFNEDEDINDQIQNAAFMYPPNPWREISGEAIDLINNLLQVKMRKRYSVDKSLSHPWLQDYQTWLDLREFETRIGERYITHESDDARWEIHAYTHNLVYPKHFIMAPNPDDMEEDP
smiles,measurement,value
CN(C(=O)CN1CCOCC1)c1ccc2sc3c(-c4cccc5c(=O)cc(N6CC7CCC(C6)O7)oc45)cccc3c2c1 [NU5455],inhibition at 1 µM,10.7%
